# In patent publication US12213959B2, “Use of 3-O-sulfamoyloxy-7β-methyl-d-homo-6-oxaestra-1,3,5(10),8(9)-tetraen-17a-one to treat breast cancer” (priority 2018, dated 2025):
# Values joined by “and” are separate entries in the source; they are usually repeats but may differ in a detail not shown here. Identical values can stand only once. Marks after values point to notes of the source that are not given here.
# Tests used:
# [1] = Body weight and tolerability during the antitumour study
# Description: The study medicament was administered i.g. using a metal atraumatic gavage (with the procedure corresponds to the oral route of administration in clinical settings). […] Ex tempore solutions of the medicament for administration were prepared in olive oil (refined olive oil supplemented with unrefined extra virgin olive oil available under Global Village “Clasico” trademark, lot L:183351116, expiry date 26.04.2020, BAIEO, Spain). The administered volume was 0.1 ml per 10 g of a mouse body weight (0.2 ml of a ready-to-use formulation for a mouse of 20 g). The medicament administration was started 24 hours after the randomization. Duration of the administration course was 27-28 days.
# This dose corresponds to a human daily dose of 20 mg/kg.
# The evaluation criteria included the clinical observation data, animals body weights, time of death (if applicable), tumor growth over time, pathomorphological examination data (verification of a neoplasm during autopsy, assessment of toxic effects by macroscopic presentation of changes in the internal organs).
# The animals body weights were recorded before the first administration of the medicaments and then twice per week using a verified high-speed electronic laboratory balance Ohaus Scout Pro (USA) with a maximum load of 2000 g and a measurement pitch of 0.1 g.
# [2] = system: MCF-7 human cells culture (breast adenocarcinoma); test: Proliferative activity of MCF-7 cells; type: cell-based; details: 20 μg/ml
# Description: (§1) The study analysis was carried out on an passaged MCF-7 human cells culture culture (breast adenocarcinoma). Normal human dermal fibroblasts (HDF) of early passages were used as a negative control.
# (§2) The cells were cultivated in Carrel vials in DMEM/F12 medium (Biolot) with 1.0% of antibiotic-free fetal bovine embryonic serum (Biolot) added in the 5% CO2 atmosphere, at 37° C.
# (§3) The cells were seeded on Carrel vials at 50×10^4 cells per flask. To study the proliferative activity of the cells under conditions of sulfatase inhibition, 24 hours after seeding the culture medium […], and then these tumor cell lines were incubated for various periods of time (24 to 72 hrs). The inhibitor was dissolved in DMSO. […] To exclude the cytotoxic effect of DMSO, a control sample comprising DMSO without sulfatase inhibitor was prepared.
# (§4) To exclude nonspecific detrimental effects of the compounds, normal human skin fibroblasts were used. Then the cells were detached with the versene-trypsin solution (Biolot), plated onto Carrel vials containing a fresh complete culture medium. The cells were counted when untreated control cells reached the maximum cell density per unit of surface area of a culture flask (monolayer), and their number was set as 100%. The proliferative activity of all of the studied cell cultures exposed to sulfatase inhibitors was determined in triplicate.
# [3] = system: Normal human dermal fibroblasts (HDF); test: Proliferative activity of normal human skin fibroblasts (negative control); type: cell-based; details: 20 μg/ml
# Description: as §1, §2, §3, §4
# [4] = system: breast tumours in FBV/N female mice, transgenic for HER-2/neu; test: Antitumour activity on breast tumours of HER-2/neu transgenic mice; type: in vivo; details: for antitumour activity compared with Tamoxifen: FVB mice transgenic for HER-2/neu with breast tumours
# Description: The study was carried out on female FVB mice transgenic for HER-2/neu of the conventional category, the strain being obtained from the mouse bank Charles River Laboratories (Italy).
# Duration of the administration course was 27-28 days.
# The control groups were given the olive oil (placebo).
# The macroscopically detectable tumor nodes were measured in the animals once per week during the weighing process.
# [5] = medicament 2 mg/kg daily i.g., Day 0
# [6] = medicament 2 mg/kg daily i.g., Day 7
# [7] = medicament 2 mg/kg daily i.g., Day 14
# [8] = medicament 2 mg/kg daily i.g., Day 21
# [9] = medicament 2 mg/kg daily i.g., Day 28
# [10] = medicament 2 mg/kg, end of observation
# [11] = medicament 20 mg/kg daily i.g., Day 0
# [12] = medicament 20 mg/kg daily i.g., Day 7
# [13] = medicament 20 mg/kg daily i.g., Day 14
# [14] = medicament 20 mg/kg daily i.g., Day 21
structure (smiles),measurement,setting,value
"C[C@H]1Oc2cc(OS(N)(=O)=O)ccc2C2=C1[C@@H]1CCCC(=O)[C@@]1(C)CC2 [medicament, 3-O-sulfamoyloxy-7β-methyl-O-homo-6-oxaestra-1,3,5(10),8(9)-tetraen]",signs of toxic damage to the internal organs at autopsy,[1]; end of the experiment,no specific signs of toxic damage to the internal organs
same,clinical signs of toxicity,"[1]; mouse, in vivo",no clinical signs of toxicity being observed
same,proliferation of MCF-7 tumour cells,[2],completely blocks
same,growth of human skin fibroblasts,[3],does not influence the growth
same,antitumour activity compared with Tamoxifen,[4],"not lower than that of the reference durg, Tamoxifen"
same,antitumour activity compared with Tamoxifen,[4]; listed as agent,more effectively than clinically used Tamoxifen
same,antitumour effect on the model,"[4]; dose range 2.0, 20.0 and 100.0 mg/kg",no pronounced antitumour effect
same,Average volume of new tumours at the end of the observation period,[4]; medicament 2 mg/kg,0.33 cm^3
same,effect on frequency of stabilisations or volume of newly developing tumours,[4]; medicament 2.0 mg/kg,had no effect
same,relative change in the total volume of tumours versus control values,[4]; medicament 2.0 mg/kg,greater than the control values
same,Average volume of tumors existing at the beginning of the experiment (M),[4]; [5],0.27 cm^3
same,Relative change of the average total volume of tumours to that of Day −1 (M),[4]; [5],0%
same,Average total volume of tumours in mice (M),"[4]; medicament 2.0 mg/kg daily i.g., Day 0",1.24 cm^3
same,Average volume of tumors existing at the beginning of the experiment (M),[4]; [6],0.42 cm^3
same,Relative change of the average total volume of tumours to that of Day −1 (M),[4]; [6],59%
same,Average total volume of tumours in mice (M),"[4]; medicament 2.0 mg/kg daily i.g., Day 7",1.91 cm^3
same,Average volume of tumors existing at the beginning of the experiment (M),[4]; [7],0.6 cm^3
same,Relative change of the average total volume of tumours to that of Day −1 (M),[4]; [7],131%
same,Average total volume of tumours in mice (M),"[4]; medicament 2.0 mg/kg daily i.g., Day 14",2.71 cm^3
same,Average volume of tumors existing at the beginning of the experiment (M),[4]; [8],0.77 cm^3
same,Relative change of the average total volume of tumours to that of Day −1 (M),[4]; [8],210%
same,Average total volume of tumours in mice (M),"[4]; medicament 2.0 mg/kg daily i.g., Day 21",3.50* cm^3
same,Average volume of tumors existing at the beginning of the experiment (M),[4]; [9],1.11 cm^3
same,Relative change of the average total volume of tumours to that of Day −1 (M),[4]; [9],347*** %
same,Average total volume of tumours in mice (M),"[4]; medicament 2.0 mg/kg daily i.g., Day 28",5.04 cm^3
same,"Average tumor volume, % of change to the initial value","[4]; medicament 2 mg/kg daily i.g., Day 28 vs Day 0",311%
same,"Average total tumour volume, % of change to the initial value","[4]; medicament 2.0 mg/kg daily i.g., Day 28 vs Day 0",307%
same,Absolute number of new tumours,[4]; [10],30
same,frequency of stabilisations of tumours present at initiation of treatment,[4]; [10],5%
same,TGI (average tumor volume),"[4]; medicament 2 mg/kg, vs Control-3, Day 0",29%
same,TGI (average total tumour volume),"[4]; medicament 2.0 mg/kg, vs Control-3, Day 0",45%
same,TGI (average tumor volume),"[4]; medicament 2 mg/kg, vs Control-3, Day 7",16%
same,TGI (average total tumour volume),"[4]; medicament 2.0 mg/kg, vs Control-3, Day 7",37%
same,TGI (average tumor volume),"[4]; medicament 2 mg/kg, vs Control-3, Day 14",14%
same,TGI (average total tumour volume),"[4]; medicament 2.0 mg/kg, vs Control-3, Day 14",35%
same,TGI (average tumor volume),"[4]; medicament 2 mg/kg, vs Control-3, Day 21",9%
same,TGI (average total tumour volume),"[4]; medicament 2.0 mg/kg, vs Control-3, Day 21",31%
same,TGI (average tumor volume),"[4]; medicament 2 mg/kg, vs Control-3, Day 28",−14%
same,TGI (average total tumour volume),"[4]; medicament 2.0 mg/kg, vs Control-3, Day 28",13%
same,Average volume of new tumours at the end of the observation period,[4]; medicament 20 mg/kg,0.19±0.04 cm^3 and 0.19 cm^3
same,Average total volume of tumours in mice (M),[4]; [11],0.41 cm^3
same,Average volume of tumors existing at the beginning of the experiment (M),[4]; [11],0.18 cm^3
same,Relative change of the average total volume of tumours to that of Day −1 (M),"[4]; medicament 20.0 mg/kg daily i.g., Day 0",0%
same,Average total volume of tumours in mice (M),[4]; [12],0.62 cm^3
same,Average volume of tumors existing at the beginning of the experiment (M),[4]; [12],0.28 cm^3
same,Relative change of the average total volume of tumours to that of Day −1 (M),"[4]; medicament 20.0 mg/kg daily i.g., Day 7",55%
same,Average total volume of tumours in mice (M),[4]; [13],0.94 cm^3
same,Average volume of tumors existing at the beginning of the experiment (M),[4]; [13],0.43 cm^3
same,Relative change of the average total volume of tumours to that of Day −1 (M),"[4]; medicament 20.0 mg/kg daily i.g., Day 14",145%
same,Average total volume of tumours in mice (M),[4]; [14],1.18 cm^3
same,Average volume of tumors existing at the beginning of the experiment (M),[4]; [14],0.54 cm^3
same,Relative change of the average total volume of tumours to that of Day −1 (M),"[4]; medicament 20.0 mg/kg daily i.g., Day 21",209** %
